Assays:
[1] = target: T1, GalNAc-T7 (Homo sapiens, UniProt Q86SF2); assay: Inhibition of GalNAc-T7 activity with GalNAc2-3EA2 substrate; format: biochemical; conditions: 5 mM
T1 construct: made in house; host or cells: High Five insect cells (baculovirus)
T1 sequence (Q86SF2 30-657 limits assumed): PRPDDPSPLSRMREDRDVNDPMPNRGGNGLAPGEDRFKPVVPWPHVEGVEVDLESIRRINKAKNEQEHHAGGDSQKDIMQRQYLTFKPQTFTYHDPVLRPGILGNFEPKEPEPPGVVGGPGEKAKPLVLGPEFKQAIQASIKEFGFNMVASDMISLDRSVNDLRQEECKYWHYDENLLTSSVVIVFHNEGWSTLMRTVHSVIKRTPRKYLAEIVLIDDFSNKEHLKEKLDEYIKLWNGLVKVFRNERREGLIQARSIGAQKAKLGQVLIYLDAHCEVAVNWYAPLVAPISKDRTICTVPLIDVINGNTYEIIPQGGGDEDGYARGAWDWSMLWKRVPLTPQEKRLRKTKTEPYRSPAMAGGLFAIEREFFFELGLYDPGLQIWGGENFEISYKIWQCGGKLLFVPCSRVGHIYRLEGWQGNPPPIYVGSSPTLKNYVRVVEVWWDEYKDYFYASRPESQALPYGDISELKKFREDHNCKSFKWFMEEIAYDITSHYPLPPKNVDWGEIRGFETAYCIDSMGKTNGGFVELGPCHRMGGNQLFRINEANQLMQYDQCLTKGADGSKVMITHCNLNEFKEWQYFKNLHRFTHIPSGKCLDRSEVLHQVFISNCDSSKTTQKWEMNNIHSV
Procedure: Standard reaction mixtures (50 μl final volume) contained 25 mM cocadylate (pH 7.4), 10 mM MnCl2, 0.25% Triton X-100, 200 μM UDP-[^14C]-GalNAc (2,000 cpm/nmol) (Amersham), 200-500 μM acceptor peptides. Products were quantified by scintillation counting after chromatography on Dowex-1, octadecyl silica cartridges (Bakerbond), or HPLC (PC3.2/3 or mRPC C2/C18 SC2.1/10 Pharmacia, Smart System). […] Glycopeptides were purified on Supelclean LC-18 columns (1 ml, Supelco), and the number of GalNAc residues incorporated evaluated by MALDI-TOF mass spectrometry. The enzyme sources used were semipurified as previously described by successive sequential ion-exchange chromatographies on Amberlite (IRA95, Sigma) or DEAE Sephacel (Pharmacia), S-Sepharose Fast Flow (Pharmacia), and Mini-S™ (PC 3.2/3, Pharmacia) using the Smart System (Pharmacia) (28). Secreted GalNAc-T4 was obtained from a stably transfected CHO line (CHO/GalNA-T4/21A) (8) grown in roller bottles in HAMS F12 supplemented with 10% Fetal Bovine Serum. The experiments illustrated in FIG. 1 was performed with recombinant secreted GalNAc-T4 obtained from a stably transfected CHO line (8). Experiments illustrated in FIGS. 2 and 3 were performed with secreted GalNAc-T4 expressed in High Five cells grown in serum-free medium (8). Structural analysis of glycopeptides were performed by a combination of PFPA (pentafluoropropionic acid) hydrolysis and MALDI-TOF mass spectrometry as previously described (40). Secreted GalNAc-T7 was obtained from infected High Five™ cells grown in serum-free medium (Invitrogen) in upright roller bottles shaken 140 rpm in waterbaths at 27° C. GalNAc-T7 was not purified by Mini-S as the yields from cationic chromatography were low due to its low pI (6.4).
GalNAc-T7 activity was analysed with GalNAc glycosylated glycopeptides (represented by GalNAc2-3EA2 (7)) in reactions of 25 μl containing 2.5 nmol acceptor (glyco)peptide, 40 nmol UDP-GalNAc, and purified GalNAc-T7. […]

[2] = tested on: wild type CHO/MUC1sol-cloneC4; assay: Secretion of MUC1, western blot of medium; format: cell-based, Chinese Hamster; conditions: 1-2 mM; compared to control treated or non-treated cells
Procedure: In order to characterize the secreted MUC1 product SDS-PAGE western blot analysis of harvested culture medium of confluent cultures were performed. Ten to twenty μL culture supernatant was analysed directly or treated with 0.1 U/mL neuraminidase (C. Perfringes VI, Sigma) for 30-60 min at 37° C. Samples were mixed with SDS sample buffer, reduced with DTT, and run on precast 4-20% gels (Biorad). As shown in FIG. 9 anti-MUC1 antibodies detected two forms of MUC1 in the medium; a low molecular weight form migrating as 130-140 kd corresponding to unglycosylated product, and a high molecular weight form migrating above 250 kd. The high molecular weight form was sensitive to neuraminidase treatment as evidenced by a marked shift and retardation in migration. […]
Because GalNAcα-benzyl exerts separate effects on O-glycan processing and mucin expression, the use of the novel selective inhibitor of mucin expression, GalNAcβ-benzyl, allow analysis of mucin expression and secretion in different cell line models. […] Most human adenocarcinoma cell lines express and secret mucins and analysis with antibodies to detect protein expression or probes to detect mRNA can reveal the types and quantities of mucins. […] The inhibitory effect on mucin secretion can be quantified by a number of assays known to the skilled in the art including western blot, ELISA, gelfiltration, immunocapture, and other assays.

`CC(=O)N[C@H]1[C@@H](OCc2ccccc2)O[C@H](CO)[C@H](O)[C@@H]1O` [GalNAcα-benzyl] was tested, and the “Inhibition of GalNAc-T7 activity with GalNAc2-3EA2” value [1] was “significantly inhibited” and the “Secreted MUC1 in medium” value [2] was “inhibition of secreted MUC1”.

Reference: US7338932B2, “Methods of modulating functions of polypeptide GalNAc-transferases and of screening test substances to find agents herefor, pharmaceutical compositions comprising such agents and the use of such agents for preparing medicaments” (Glycozym APS, priority 2000, dated 2008)
